Test results: PubChem BioAssay AID2305 (GlaxoSmithKline (GSK), 2010)

Tested on: P. falciparum 3D7 growth, pLDH absorbance
Test: blood-stage malaria parasite growth potency – strain 3D7, dose response (AID 2305)

Row | SMILES | IC50 [nM]
1 | CC(=O)Nc1ccc(CN2CCC(CNC(=O)c3cc(-c4cccc(Cl)c4)cs3)C2)cc1 (stereo not given) | 1120
2 | Nc1nc(N)c2c(Cc3ccccc3)cccc2n1 | 830
3 | O=[N+]([O-])c1cccc(CNCC2CCN(Cc3ccc(C(F)(F)F)cc3)CC2)c1 | 250
4 | O=C(c1cncc(-c2ccccc2)c1)N(Cc1cncn1Cc1ccccc1F)CC1CC1 | 800
5 | CSc1nc2cc3c(cc2n1C(=O)c1ccc(C)cc1)OCCO3 | 170
6 | COc1ccc(CNc2ccc3nc(N)nc(N)c3c2)cc1 | 170
7 | CC(C)[C@@H](C(=O)NCc1cccc(C(F)(F)F)c1)N1C(=O)CCC1C(=O)Nc1ccc([N+](=O)[O-])cc1 (stereo not given in full) | 930
8 | CC(Cc1ccc(OCc2ccccc2)cc1)Nc1nc2ccccc2c(=O)[nH]1 (stereo not given) | 570
9 | CCNc1cc(C(=O)N[C@@H](Cc2ccccc2)[C@H](O)CN[C@H]2CCc3ccccc32)cc(N2CCCC2=O)c1 | 290
10 | CN(C)Cc1c(O)ccc2[nH]c(-c3ccc(OC(F)(F)F)cc3)nc12 | 730
11 | CCN(c1ccccc1)S(=O)(=O)c1ccc(NC(=O)c2cc(-c3cc(C)ccc3O)n[nH]2)cc1 | 770
12 | CCCS(=O)(=O)N1CCC(CO)(Cc2ccccc2C(F)(F)F)CC1 | 890
13 | O=C(Nc1cccc(-c2cc3ccccc3[nH]2)c1)C1CCN(Cc2ccccc2O)CC1 | 940
14 | CC(C)c1ccc(CN2CCC(NC(=O)c3ccc(-c4cccc(Cl)c4)s3)CC2)cc1 | 1430
15 | S=C(NN=Cc1ccccn1)NC1C[C@H]2C=C[C@@H]1C2 (stereo not given in full) | 720
16 | Cc1nc(C(=O)N2CCCC[C@H]2CNC(=O)c2ccc(-c3ccc(N4CCCC4=O)cc3C)cc2)c(-c2ccc(F)cc2)s1 | 460
17 | OC(CN1CCN(C2CCCCC2)CC1)Cn1c2ccccc2c2cc(Br)ccc21 (stereo not given) | 860
18 | CCCC(C)NC[C@@H](O)[C@H](Cc1ccccc1)NC(=O)c1cc(C2CCCC2)cc(N2CCCCS2(=O)=O)c1 (stereo not given in full) | 150
19 | COC(=O)Cn1c2ccccc2c2c(N)c(C(=O)OC)c(C)nc21 | 940
20 | COc1cccc(-c2nc3c(N4CCN(c5ccncc5)CC4)cccc3n2CC2CCCCCN2)n1 (stereo not given) | 1060
21 | OCCCCCCNc1ccnc2[nH]c3ccc(I)cc3c12 | 1070
22 | COc1ccc(NC(=O)[C@H](CC(C)C)Nc2ccnc(NCCc3ccc(F)cc3)n2)cc1 | 1600
23 | Cc1[nH]c(C)c(C2CCC(c3ccc(Cl)cc3)CC2)c(=O)c1Cl (stereo not given) | 50
24 | CN1CCCN(Cc2ccc(-c3cccc(NC(=O)c4ccc(C#N)cc4)c3)cc2)CC1 | 740
25 | Cc1cc(N2CCN(C)CC2)nc2ccc(NC(=O)Cc3cccc(C(F)(F)F)c3)cc12 | 740

Row | SMILES | IC50 [nM]
26 | c1cncc(CCNCc2ccc(-c3cccc(-c4nc5ccccc5[nH]4)c3)cc2)c1 | 160
27 | CN1Cc2ccc(NS(=O)(=O)c3ccc(-c4ccoc4)cc3)cc2C1 | 160
28 | Cc1ccc2nc(C)n(C3CCN(C(=O)Cc4ccc(F)c(F)c4)CC3)c2c1 | 470
29 | COc1ccc([N+](=O)[O-])cc1N(Cc1ccccc1-c1ccccc1)S(=O)(=O)c1ccc(C(F)(F)F)cc1[N+](=O)[O-] | 1050
30 | COc1ccc(-c2cccc(NC(=O)c3cccc(F)c3)c2)cc1CN1CCCN(C)CC1 | 600
31 | CCCCOc1c(CNCCCCCCNCc2ccc3ccccc3c2OCCCC)ccc2ccccc12 | 870
32 | O=C(NCC1CCC(CNCCCc2ccccc2)CC1)Nc1ccc(Cl)c(Cl)c1 (stereo not given) | 770
33 | Cc1cccc(CNc2nc(C)cc(N[C@@H](Cc3ccccc3)C(=O)NCCOc3ccccc3)n2)c1 | 910
34 | CCCOc1ccc(NC(=O)c2cccs2)cc1Cl | 860
35 | COc1ccc(NC(=O)Nc2ccc(-c3ccccc3)cc2)cc1Cn1cnc(N2CCCNCC2)cc1=O | 760
36 | CN(C)CCOc1ccc(N2CCN(CCCCNC(=O)c3ccc(NC(=O)c4ccc(Cl)cc4)cc3)CC2)cc1 | 830
37 | CCCCN(CCCC)CC(O)c1cc(-c2ccc(Cl)cc2)nc2c(Cl)cc(Cl)cc12 (stereo not given) | 30
38 | CO/C(=C\C=C\c1cc2cc(Cl)ccc2[nH]1)C(=O)NCCCN1CCN(c2cc(Cl)ccc2OC)CC1 | 880
39 | COC(=O)C(=O)c1c(-c2ccccc2)c(-c2ccc(OC)c(OC)c2)c2c3cc(OC)c(OC)cc3ccn12 | 640
40 | NC1=NC(CCc2ccccc2)N(c2ccccc2)C(N)=N1 (stereo not given) | 80
41 | O=C(N[C@@H](CC1CCCCC1)C(=O)NCCc1ccc(Cl)c(Cl)c1)c1ccc(O)c(-c2ccc(Cl)c(Cl)c2)c1 | 160
42 | NC(=O)c1cnc2cc(-c3ccoc3)ccc2c1Nc1ccc(NC(=O)Nc2ccccc2Cl)cc1 | 540
43 | COc1ccc2ncc(F)c(CCN3CCC[C@H](CNCc4ccc5c(n4)NC(=O)CS5)C3)c2n1 | 970
44 | O=C(NCc1ccccn1)C(c1cc2ccccc2o1)N1CCN(C(c2ccccc2)c2ccccc2)CC1 (stereo not given) | 860
45 | CCN1CCN(c2ccc(Nc3c4ccccc4nc4ccccc34)cc2)CC1 | 720
46 | COc1ccc(CC(=O)Nc2ccc(Nc3nc(C)cc(N(C)C)n3)cc2)cc1 | 790
47 | O=C(NC1CC1)c1ccc(N2CCC(Oc3ccc(F)cc3)CC2)nc1 | 1090
48 | CC(C)Cn1cc2c(ccc3nc(N)nc(N)c32)n1 | 300
49 | CCCN(CCCCCCN(CCC)CCc1ccc(O)c(O)c1)CCc1ccc(O)cc1 | 1010
50 | CN(C)CCCNCc1cn(S(=O)(=O)c2ccccc2Cl)c2ccccc12 | 1070
